Experimental data reported in PubChem BioAssay AID2060359 (Molecular Pharmacology Branch, DTP, NCI, 2025).
pIC50: −log10 of the molar value.

System: 276233-004-R-J1-PDC spheroids with HUVEC/MSC, viability
Test: Anticancer human tumor 276233-004-R-J1-PDC patient-derived colon adenocarcinoma cell line growth inhibition [TAK]
Settings: for pIC50: curve of first compound; for viability, T/C: stronger effect = lower value
Summary of the method: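 Drug combinations, each paired with TAK-243 or ipatasertib, were tested on multi-cell spheroids of 60% malignant cells, 25% HUVEC and 15% hMSC. Top concentrations were at or near the clinical Cmax (10 microM if undetermined), decreasing by half-log; viability is given as % test/control.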

[1] = second compound 0.3 µM, first compound 0.0316 µM
[2] = second compound 0.3 µM, first compound 0.1 µM
[3] = second compound 0.3 µM, first compound 0.316 µM
[4] = second compound 0.3 µM, first compound 1 µM
[5] = second compound 0.3 µM, first compound 3.16 µM
[6] = second compound 0.3 µM, first compound 10 µM
[7] = second compound 0.949 µM, first compound 0.0316 µM
[8] = second compound 0.949 µM, first compound 0.1 µM
[9] = second compound 0.949 µM, first compound 0.316 µM
[10] = second compound 0.949 µM, first compound 1 µM
[11] = second compound 0.949 µM, first compound 3.16 µM
[12] = second compound 0.949 µM, first compound 10 µM
[13] = second compound 3 µM, first compound 0.0316 µM
[14] = second compound 3 µM, first compound 0.1 µM
[15] = second compound 3 µM, first compound 0.316 µM
[16] = second compound 3 µM, first compound 1 µM
[17] = second compound 3 µM, first compound 3.16 µM
[18] = second compound 3 µM, first compound 10 µM
[19] = second compound 9.49 µM, first compound 0.0316 µM
[20] = second compound 9.49 µM, first compound 0.1 µM
[21] = second compound 9.49 µM, first compound 0.316 µM
[22] = second compound 9.49 µM, first compound 1 µM
[23] = second compound 9.49 µM, first compound 3.16 µM
[24] = second compound 9.49 µM, first compound 10 µM
[25] = second compound 30 µM, first compound 0.0316 µM
[26] = second compound 30 µM, first compound 0.1 µM
[27] = second compound 30 µM, first compound 0.316 µM
[28] = second compound 30 µM, first compound 1 µM
[29] = second compound 30 µM, first compound 3.16 µM
[30] = second compound 30 µM, first compound 10 µM
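Also: spheroids exposed to drugs for seven days before the viability read.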

For `CC(C)(C)c1nc(-c2cccc(NS(=O)(=O)c3c(F)cccc3F)c2F)c(-c2ccnc(N)n2)s1` + CC(C)NCC(C(=O)N1CCN(c2ncnc3c2C(C)CC3O)CC1)c1ccc(Cl)cc1, the pIC50 (second compound 0.3 µM) was less than 5.00, the pIC50 (second compound 0.949 µM) was less than 5.00 and the pIC50 (second compound 3 µM) was less than 5.00. It also gave a pIC50 (second compound 9.49 µM) of less than 5.00, a pIC50 (second compound 30 µM) of less than 5.00 and a viability, T/C [1] of 109%. For the same compound, the viability, T/C [2] was 92.8%, the viability, T/C [3] was 110% and the viability, T/C [4] was 90.7%. For the same compound, the viability, T/C [5] was 65.1%, the viability, T/C [6] was 82.6% and the viability, T/C [7] was 101%. For the same compound, the viability, T/C [8] was 96.4%, the viability, T/C [9] was 86.8% and the viability, T/C [10] was 84.4%. It also gave a viability, T/C [11] of 73.8%, a viability, T/C [12] of 71.8% and a viability, T/C [13] of 80.6%. For the same compound, the viability, T/C [14] was 78.3%, the viability, T/C [15] was 91.1% and the viability, T/C [16] was 61.1%. For the same compound, the viability, T/C [17] was 63.5%, the viability, T/C [18] was 65.5% and the viability, T/C [19] was 73.2%. It also gave a viability, T/C [20] of 78.8%, a viability, T/C [21] of 68.2% and a viability, T/C [22] of 64.7%. For the same compound, the viability, T/C [23] was 83.1%, the viability, T/C [24] was 57% and the viability, T/C [25] was 61.9%. The viability, T/C [26] was 73.8%, the viability, T/C [27] was 64.6% and the viability, T/C [28] was 70.1%. The viability, T/C [29] was 67.5% and the viability, T/C [30] was 75.3%.
Compound `CC(C)n1nc(-c2ccc3oc(N)nc3c2)c2c(N)ncnc21` + CC(C)NCC(C(=O)N1CCN(c2ncnc3c2C(C)CC3O)CC1)c1ccc(Cl)cc1 has a pIC50 (second compound 0.3 µM) of less than 7.00, a pIC50 (second compound 0.949 µM) of less than 7.00 and a pIC50 (second compound 3 µM) of less than 7.00. It also gave a pIC50 (second compound 9.49 µM) of less than 7.00, a pIC50 (second compound 30 µM) of less than 7.00 and a viability, T/C (second compound 0.3 µM, first compound 0.000316 µM) of 112%. The viability, T/C (second compound 0.3 µM, first compound 0.001 µM) was 98.7%, the viability, T/C (second compound 0.3 µM, first compound 0.00316 µM) was 89.5% and the viability, T/C (second compound 0.3 µM, first compound 0.01 µM) was 90.6%. It also gave a viability, T/C [1] of 78.2%, a viability, T/C [2] of 60.8% and a viability, T/C (second compound 0.949 µM, first compound 0.000316 µM) of 104%. For the same compound, the viability, T/C (second compound 0.949 µM, first compound 0.001 µM) was 84.9%, the viability, T/C (second compound 0.949 µM, first compound 0.00316 µM) was 83.9% and the viability, T/C (second compound 0.949 µM, first compound 0.01 µM) was 68.1%. It also gave a viability, T/C [7] of 65.3%, a viability, T/C [8] of 57.2% and a viability, T/C (second compound 3 µM, first compound 0.000316 µM) of 84.7%. It also gave a viability, T/C (second compound 3 µM, first compound 0.001 µM) of 81.8%, a viability, T/C (second compound 3 µM, first compound 0.00316 µM) of 72.4% and a viability, T/C (second compound 3 µM, first compound 0.01 µM) of 63.4%. The viability, T/C [13] was 69.5%, the viability, T/C [14] was 58.9% and the viability, T/C (second compound 9.49 µM, first compound 0.000316 µM) was 74.8%. It also gave a viability, T/C (second compound 9.49 µM, first compound 0.001 µM) of 77.1%, a viability, T/C (second compound 9.49 µM, first compound 0.00316 µM) of 74.6% and a viability, T/C (second compound 9.49 µM, first compound 0.01 µM) of 70.1%. It also gave a viability, T/C [19] of 66.5%, a viability, T/C [20] of 60.1% and a viability, T/C (second compound 30 µM, first compound 0.000316 µM) of 61.4%. The viability, T/C (second compound 30 µM, first compound 0.001 µM) was 64.7%, the viability, T/C (second compound 30 µM, first compound 0.00316 µM) was 59% and the viability, T/C (second compound 30 µM, first compound 0.01 µM) was 64.5%. For the same compound, the viability, T/C [25] was 78.5% and the viability, T/C [26] was 59.7%.
`CCCS(=O)(=O)Nc1ccc(F)c(C(=O)c2c[nH]c3ncc(-c4ccc(Cl)cc4)cc23)c1F` + CC(C)NCC(C(=O)N1CCN(c2ncnc3c2C(C)CC3O)CC1)c1ccc(Cl)cc1 showed a pIC50 (second compound 0.3 µM) of less than 4.00, a pIC50 (second compound 0.949 µM) of less than 4.00 and a pIC50 (second compound 3 µM) of less than 4.00. The pIC50 (second compound 9.49 µM) was less than 4.00, the pIC50 (second compound 30 µM) was less than 4.00 and the viability, T/C [3] was 83.8%. It also gave a viability, T/C [4] of 99.5%, a viability, T/C [5] of 96.9% and a viability, T/C [6] of 102%. The viability, T/C (second compound 0.3 µM, first compound 31.6 µM) was 95.7%, the viability, T/C (second compound 0.3 µM, first compound 100 µM) was 120% and the viability, T/C [9] was 86.9%. For the same compound, the viability, T/C [10] was 89.7%, the viability, T/C [11] was 86.4% and the viability, T/C [12] was 69.3%. For the same compound, the viability, T/C (second compound 0.949 µM, first compound 31.6 µM) was 87.2%, the viability, T/C (second compound 0.949 µM, first compound 100 µM) was 86.9% and the viability, T/C [15] was 72.7%. It also gave a viability, T/C [16] of 77.3%, a viability, T/C [17] of 91.2% and a viability, T/C [18] of 76.9%. It also gave a viability, T/C (second compound 3 µM, first compound 31.6 µM) of 68.7%, a viability, T/C (second compound 3 µM, first compound 100 µM) of 74.5% and a viability, T/C [21] of 63.8%. For the same compound, the viability, T/C [22] was 70%, the viability, T/C [23] was 72.2% and the viability, T/C [24] was 62.8%. It also gave a viability, T/C (second compound 9.49 µM, first compound 31.6 µM) of 92.2%, a viability, T/C (second compound 9.49 µM, first compound 100 µM) of 68.8% and a viability, T/C [27] of 68.4%. For the same compound, the viability, T/C [28] was 61.8%, the viability, T/C [29] was 79% and the viability, T/C [30] was 72.1%. The viability, T/C (second compound 30 µM, first compound 31.6 µM) was 59.5% and the viability, T/C (second compound 30 µM, first compound 100 µM) was 63.5%.
For `Cc1nc(NC(=O)N2CCCC2C(N)=O)sc1-c1ccnc(C(C)(C)C(F)(F)F)c1` (stereo not given) + CC(C)NCC(C(=O)N1CCN(c2ncnc3c2C(C)CC3O)CC1)c1ccc(Cl)cc1, the pIC50 (second compound 0.3 µM) was 5.15, the pIC50 (second compound 0.949 µM) was 6.01 and the pIC50 (second compound 3 µM) was 5.57. The pIC50 (second compound 9.49 µM) was 5.70, the pIC50 (second compound 30 µM) was greater than 7.50 and the viability, T/C [1] was 95.3%. The viability, T/C [2] was 77%, the viability, T/C [3] was 79.2% and the viability, T/C [4] was 69.4%. It also gave a viability, T/C [5] of 60.1%, a viability, T/C [6] of 44.7% and a viability, T/C [7] of 77.3%. For the same compound, the viability, T/C [8] was 78.8%, the viability, T/C [9] was 71.9% and the viability, T/C [10] was 49.4%. The viability, T/C [11] was 50.9%, the viability, T/C [12] was 40.9% and the viability, T/C [13] was 63.7%. For the same compound, the viability, T/C [14] was 77.3%, the viability, T/C [15] was 67.5% and the viability, T/C [16] was 58%. It also gave a viability, T/C [17] of 46.3%, a viability, T/C [18] of 50.8% and a viability, T/C [19] of 54.5%. The viability, T/C [20] was 64.5%, the viability, T/C [21] was 63% and the viability, T/C [22] was 55.8%. The viability, T/C [23] was 46%, the viability, T/C [24] was 39.8% and the viability, T/C [25] was 39.1%. For the same compound, the viability, T/C [26] was 40.9%, the viability, T/C [27] was 34% and the viability, T/C [28] was 32.9%. It also gave a viability, T/C [29] of 27.4% and a viability, T/C [30] of 24.5%.
